According to PubChem BioAssay (NCI):
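Results reflect a 48-hour exposure of cells in 96-well plates to compound at five concentrations. TGI denotes the concentration required for complete inhibition of growth.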

Columns and labels:
Assay in all cases: inhibition of tumour cell growth, NCI panel, 48 h
[1] = test system: SNB-19 CNS
[2] = test system: A549 NSCLC
[3] = test system: M14 melanoma
[4] = test system: BT-549 breast
[5] = test system: KM12 colon
[6] = test system: HCC-2998 colon
[7] = test system: NCI-H23 lung
[8] = test system: RPMI-8226 leukemia
[9] = test system: SK-MEL-28 melanoma
[10] = test system: SW-620 colon
[11] = test system: HCT-15 colon
[12] = test system: SF-295 CNS
[13] = test system: SN12C renal
[14] = test system: RXF 393 renal
[15] = test system: OVCAR-5 ovarian
[16] = test system: OVCAR-4 ovarian
[17] = test system: UO-31 renal
[18] = test system: HOP-92 NSCLC
[19] = test system: MDA-MB-435
[20] = test system: MDA-N
[21] = test system: EKVX NSCLC
[22] = test system: TK-10 renal
[23] = test system: OVCAR-8 ovarian
[24] = test system: NCI-H460 lung
[25] = test system: LOX IMVI melanoma
[26] = test system: COLO 205 colon
[27] = test system: ACHN renal
[28] = test system: MDA-MB-231 breast
[29] = test system: NCI/ADR-RES ovarian
[30] = test system: SNB-75 CNS
[31] = test system: HS 578T breast
[32] = test system: SK-OV-3 ovarian
[33] = test system: MCF7 breast
[34] = test system: 786-0 renal
[35] = test system: HL-60(TB) leukemia
[36] = test system: MALME-3M melanoma
[37] = test system: MOLT-4 leukemia
[38] = test system: OVCAR-3 ovarian
[39] = test system: SK-MEL-2 melanoma
[40] = test system: HT29 colon
[41] = test system: DU-145 prostate
[42] = test system: UACC-257 melanoma
[43] = test system: HCT-116 colon
[44] = test system: HOP-62 NSCLC
[45] = test system: NCI-H226 lung
[46] = test system: SF-268 CNS
[47] = test system: SR leukemia
[48] = test system: CAKI-1 renal
[49] = test system: UACC-62 melanoma
[50] = test system: SF-539 CNS
[51] = test system: SK-MEL-5 melanoma
[52] = test system: CCRF-CEM leukemia
[53] = test system: IGROV1 ovarian
[54] = test system: PC-3 prostate
[55] = test system: K-562 leukemia
[56] = test system: T-47D breast
[57] = test system: U251 CNS
[58] = test system: NCI-H522 lung
[59] = test system: A498 renal

Work on `COc1cc(N(CCC#N)CCC#N)ccc1/C(N=Nc1ccccc1)=N/NC(=O)c1cc(Br)ccc1O` yielded a TGI [1] greater than 100 µM, a TGI [2] greater than 100 µM and a TGI [3] greater than 100 µM. For the same compound, the TGI [4] was 65.2 µM, the TGI [5] was greater than 100 µM and the TGI [6] was 48 µM. It also gave a TGI [7] of 49.8 µM, a TGI [8] of 44.6 µM and a TGI [9] of 87.6 µM. For the same compound, the TGI [10] was greater than 100 µM, the TGI [11] was 68.2 µM and the TGI [12] was greater than 100 µM. It also gave a TGI [13] of 96.6 µM, a TGI [14] of 70.9 µM and a TGI [15] greater than 100 µM. For the same compound, the TGI [16] was 64.4 µM, the TGI [17] was 57.5 µM and the TGI [18] was 68.6 µM. It also gave a TGI [19] greater than 100 µM, a TGI [20] greater than 100 µM and a TGI [21] of 69.2 µM. For the same compound, the TGI [22] was greater than 100 µM, the TGI [23] was greater than 100 µM and the TGI [24] was 51.1 µM. The TGI [25] was 65.1 µM, the TGI [26] was 29.8 µM and the TGI [27] was 81.6 µM. The TGI [28] was 62.6 µM, the TGI [29] was greater than 100 µM and the TGI [30] was greater than 100 µM. The TGI [31] was greater than 100 µM, the TGI [32] was greater than 100 µM and the TGI [33] was 55.5 µM. For the same compound, the TGI [34] was greater than 100 µM, the TGI [35] was 36.6 µM and the TGI [36] was greater than 100 µM. It also gave a TGI [37] of 38.3 µM, a TGI [38] of 83.5 µM and a TGI [39] of 85.1 µM. It also gave a TGI [40] of 71.4 µM, a TGI [41] of 74.3 µM and a TGI [42] of 62.8 µM. It also gave a TGI [43] of 44.1 µM, a TGI [44] of 95.5 µM and a TGI [45] greater than 100 µM. The TGI [46] was greater than 100 µM, the TGI [47] was 43.7 µM and the TGI [48] was 61.4 µM. The TGI [49] was 46.7 µM, the TGI [50] was 83.7 µM and the TGI [51] was 42.3 µM. It also gave a TGI [52] of 33.2 µM, a TGI [53] of 35 µM and a TGI [54] greater than 100 µM. The TGI [55] was 42.7 µM, the TGI [56] was 57.8 µM and the TGI [57] was greater than 100 µM. For the same compound, the TGI [58] was 67.9 µM.

`COc1ccc(-c2cc(=O)c3c(O)cc(C)cc3o2)cc1OC` was tested, and the TGI [1] was greater than 100 µM, the TGI [2] was greater than 100 µM and the TGI [3] was greater than 100 µM. For the same compound, the TGI [4] was greater than 100 µM, the TGI [5] was greater than 100 µM and the TGI [6] was greater than 100 µM. For the same compound, the TGI [7] was greater than 100 µM, the TGI [8] was greater than 100 µM and the TGI [9] was greater than 100 µM. For the same compound, the TGI [10] was greater than 100 µM, the TGI [11] was greater than 100 µM and the TGI [12] was greater than 100 µM. The TGI [13] was greater than 100 µM, the TGI [14] was greater than 100 µM and the TGI [15] was greater than 100 µM. It also gave a TGI [16] greater than 100 µM, a TGI [17] greater than 100 µM and a TGI [18] greater than 100 µM. It also gave a TGI [19] greater than 100 µM, a TGI [20] greater than 100 µM and a TGI [21] greater than 100 µM. The TGI [22] was greater than 100 µM, the TGI [24] was greater than 100 µM and the TGI [25] was greater than 100 µM. It also gave a TGI [26] greater than 100 µM, a TGI [27] greater than 100 µM and a TGI [28] greater than 100 µM. It also gave a TGI [29] greater than 100 µM, a TGI [30] greater than 100 µM and a TGI [31] greater than 100 µM. For the same compound, the TGI [32] was greater than 100 µM, the TGI [33] was greater than 100 µM and the TGI [34] was greater than 100 µM. It also gave a TGI [35] greater than 100 µM, a TGI [36] greater than 100 µM and a TGI [37] greater than 100 µM. It also gave a TGI [38] greater than 100 µM, a TGI [39] greater than 100 µM and a TGI [40] greater than 100 µM. The TGI [41] was greater than 100 µM, the TGI [42] was greater than 100 µM and the TGI [43] was greater than 100 µM. The TGI [44] was greater than 100 µM, the TGI [45] was greater than 100 µM and the TGI [46] was greater than 100 µM. The TGI [47] was greater than 100 µM, the TGI [49] was greater than 100 µM and the TGI [50] was greater than 100 µM. The TGI [51] was greater than 100 µM, the TGI [52] was greater than 100 µM and the TGI [53] was greater than 100 µM. For the same compound, the TGI [54] was greater than 100 µM, the TGI [55] was greater than 100 µM and the TGI [56] was greater than 100 µM. For the same compound, the TGI [57] was greater than 100 µM and the TGI [58] was greater than 100 µM.

With `COc1cccc(CC2Cc3ccccc3CC(=O)N2)c1` (stereo unspecified) the TGI [1] was greater than 100 µM, the TGI [2] was greater than 100 µM and the TGI [3] was 93.3 µM. It also gave a TGI [4] of 92.1 µM, a TGI [5] greater than 100 µM and a TGI [6] greater than 100 µM. For the same compound, the TGI [7] was greater than 100 µM, the TGI [8] was greater than 100 µM and the TGI [9] was greater than 100 µM. For the same compound, the TGI [10] was greater than 100 µM, the TGI [12] was greater than 100 µM and the TGI [13] was greater than 100 µM. For the same compound, the TGI [14] was greater than 100 µM, the TGI [15] was greater than 100 µM and the TGI [16] was greater than 100 µM. It also gave a TGI [17] greater than 100 µM, a TGI [18] greater than 100 µM and a TGI [19] greater than 100 µM. The TGI [20] was greater than 100 µM, the TGI [21] was greater than 100 µM and the TGI [22] was greater than 100 µM. For the same compound, the TGI [23] was greater than 100 µM, the TGI [24] was 72.8 µM and the TGI [25] was 70.9 µM. It also gave a TGI [26] greater than 100 µM, a TGI [27] greater than 100 µM and a TGI [28] of 79.2 µM. For the same compound, the TGI [29] was greater than 100 µM, the TGI [30] was greater than 100 µM and the TGI [31] was 68.2 µM. It also gave a TGI [32] greater than 100 µM, a TGI [33] of 92 µM and a TGI [35] greater than 100 µM. It also gave a TGI [37] greater than 100 µM, a TGI [38] greater than 100 µM and a TGI [39] greater than 100 µM. For the same compound, the TGI [40] was greater than 100 µM, the TGI [41] was greater than 100 µM and the TGI [42] was greater than 100 µM. The TGI [43] was greater than 100 µM, the TGI [44] was 72.5 µM and the TGI [45] was greater than 100 µM. The TGI [46] was greater than 100 µM, the TGI [47] was greater than 100 µM and the TGI [48] was 68.6 µM. For the same compound, the TGI [49] was greater than 100 µM, the TGI [50] was greater than 100 µM and the TGI [51] was 54.6 µM. The TGI [52] was greater than 100 µM, the TGI [53] was greater than 100 µM and the TGI [54] was greater than 100 µM. The TGI [55] was greater than 100 µM, the TGI [56] was greater than 100 µM and the TGI [57] was greater than 100 µM.

`Cc1ccsc1/C=N/Nc1nncc2ccccc12` showed a TGI [1] greater than 100 µM, a TGI [2] greater than 100 µM and a TGI [3] greater than 100 µM. It also gave a TGI [4] greater than 100 µM, a TGI [5] greater than 100 µM and a TGI [6] greater than 100 µM. For the same compound, the TGI [7] was greater than 100 µM, the TGI [8] was greater than 100 µM and the TGI [9] was greater than 100 µM. The TGI [10] was greater than 100 µM, the TGI [11] was greater than 100 µM and the TGI [12] was greater than 100 µM. For the same compound, the TGI [13] was greater than 100 µM, the TGI [14] was greater than 100 µM and the TGI [15] was greater than 100 µM. The TGI [16] was greater than 100 µM, the TGI [17] was greater than 100 µM and the TGI [18] was greater than 100 µM. The TGI [19] was greater than 100 µM, the TGI [20] was greater than 100 µM and the TGI [21] was greater than 100 µM. The TGI [22] was greater than 100 µM, the TGI [23] was greater than 100 µM and the TGI [25] was greater than 100 µM. The TGI [26] was greater than 100 µM, the TGI [27] was greater than 100 µM and the TGI [28] was greater than 100 µM. The TGI [29] was greater than 100 µM, the TGI [30] was greater than 100 µM and the TGI [31] was greater than 100 µM. It also gave a TGI [32] greater than 100 µM, a TGI [33] greater than 100 µM and a TGI [34] greater than 100 µM. The TGI [37] was greater than 100 µM, the TGI [59] was greater than 100 µM and the TGI [38] was greater than 100 µM. It also gave a TGI [39] of 92 µM, a TGI [40] greater than 100 µM and a TGI [41] greater than 100 µM. The TGI [42] was greater than 100 µM, the TGI [43] was greater than 100 µM and the TGI [44] was greater than 100 µM. It also gave a TGI [45] greater than 100 µM, a TGI [46] greater than 100 µM and a TGI [48] greater than 100 µM. For the same compound, the TGI [49] was greater than 100 µM, the TGI [51] was greater than 100 µM and the TGI [52] was greater than 100 µM. The TGI [53] was greater than 100 µM, the TGI [54] was greater than 100 µM and the TGI [55] was greater than 100 µM. It also gave a TGI [56] greater than 100 µM and a TGI [57] greater than 100 µM.
